Data as given in the supplement of paper PMC10627819.

Key:
[1] = test system: S. aureus DSM 20231; assay: fitness (endpoint OD595 vs no drug) (fraction); higher = more growth
Summary of the method: (§1)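 Fitness expresses the optical density reached at the stationary-phase transition as a fraction of the robust mean of no-drug control wells. It is capped at 1. Measurements were OD595 every 30 min for 14 h at 37 °C after inoculation of 384-well plates at OD595 0.01 (30 µl, or 55 µl for S. pneumoniae), minus the first reading.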

[2] = test system: S. aureus Newman; assay: as above
Summary of the method: as §1

[3] = test system: S. pneumoniae D39V; assay: as above
Summary of the method: as §1

[4] = test system: B. subtilis 168; assay: Bliss interaction score (quartile over a dose matrix) (fitness difference); higher = more antagonism (negative = synergy)
Summary of the method: (§2)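 Each OD595 reading at entry into stationary phase was scaled to the robust mean of the untreated wells on its plate, with a ceiling of 1. These ratios define fitness, and single-drug fitness was inferred from combinations. The Bliss score compares observed fitness with the product-based expectation and is reported as quartiles across all replicate types, technical, biological and donor/recipient.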

[5] = test system: S. aureus DSM 20231; assay: as above
Summary of the method: as §2

[6] = test system: S. aureus Newman; assay: as above
Summary of the method: as §2

[7] = test system: S. pneumoniae D39V; assay: as above
Summary of the method: as §2
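Throughout, for Bliss interaction score (quartile over a dose matrix): first quartile when negative (synergy) and third quartile when positive (antagonism).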
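Throughout, for fitness (endpoint OD595 vs no drug): OD595 on entry to stationary phase over no-drug wells; at most 1.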

CC1(C)S[C@@H]2[C@H](NC(=O)[C@H](N)c3ccc(O)cc3)C(=O)N2[C@H]1C(=O)O [Amoxicillin] + Cc1ncc([N+](=O)[O-])n1CCO [Metronidazole]
Details	fitness
[1], first compound 0.0625 µg/mL, partner 0.625 µg/mL	0.588
[1], first compound 0.125 µg/mL, partner 1.25 µg/mL	0.428
[1], first compound 0.5 µg/mL, partner 0.625 µg/mL	0.0108
[1], first compound 0.5 µg/mL, partner 1.25 µg/mL	0.0138
[1], first compound 0.5 µg/mL, partner 2.5 µg/mL	0.0153
[2], first compound 0.0625 µg/mL, partner 0.625 µg/mL	0.835
[2], first compound 0.0625 µg/mL, partner 0.781 µg/mL	0.922
[2], first compound 0.0625 µg/mL, partner 1.25 µg/mL	0.906
[2], first compound 0.0625 µg/mL, partner 1.562 µg/mL	0.917
[2], first compound 0.0625 µg/mL, partner 2.5 µg/mL	0.87
[2], first compound 0.0625 µg/mL, partner 3.124 µg/mL	0.913
[2], first compound 0.125 µg/mL, partner 0.625 µg/mL	0.839
[2], first compound 0.125 µg/mL, partner 0.781 µg/mL	0.952
[2], first compound 0.125 µg/mL, partner 1.25 µg/mL	0.905
[2], first compound 0.125 µg/mL, partner 1.562 µg/mL	0.972
[2], first compound 0.125 µg/mL, partner 2.5 µg/mL	0.836
[2], first compound 0.125 µg/mL, partner 3.124 µg/mL	0.957
[2], first compound 0.25 µg/mL, partner 0.625 µg/mL	0.799
[2], first compound 0.25 µg/mL, partner 0.781 µg/mL	0.945
[2], first compound 0.25 µg/mL, partner 1.25 µg/mL	0.789
[2], first compound 0.25 µg/mL, partner 1.562 µg/mL	0.951
[2], first compound 0.25 µg/mL, partner 2.5 µg/mL	0.816
[2], first compound 0.25 µg/mL, partner 3.124 µg/mL	0.929
[3], first compound 0.0008 µg/mL, partner 1.073 µg/mL	0.958
[3], first compound 0.0008 µg/mL, partner 2.145 µg/mL	0.946
[3], first compound 0.0008 µg/mL, partner 4.29 µg/mL	0.919
[3], first compound 0.0015 µg/mL, partner 1.073 µg/mL	0.972
[3], first compound 0.0015 µg/mL, partner 1.25 µg/mL	0.988
[3], first compound 0.0015 µg/mL, partner 2.145 µg/mL	0.926
[3], first compound 0.0015 µg/mL, partner 2.5 µg/mL	≥ 1
[3], first compound 0.0015 µg/mL, partner 4.29 µg/mL	0.941
[3], first compound 0.0015 µg/mL, partner 5 µg/mL	0.995
[3], first compound 0.003 µg/mL, partner 1.073 µg/mL	0.938
[3], first compound 0.003 µg/mL, partner 1.25 µg/mL	0.97
[3], first compound 0.003 µg/mL, partner 2.145 µg/mL	0.914
[3], first compound 0.003 µg/mL, partner 2.5 µg/mL	0.989
[3], first compound 0.003 µg/mL, partner 4.29 µg/mL	0.93
[3], first compound 0.003 µg/mL, partner 5 µg/mL	0.946

fitness, [3], one replicate
Details	partner 1.25 µg/mL	partner 2.5 µg/mL	partner 5 µg/mL
first compound 0.0008 µg/mL	≥ 1	≥ 1	≥ 1
first compound 0.006 µg/mL	0.561	0.587	0.574

Details	Bliss interaction score
[4]	0.0817
[5]	0.0885
[6]	0.0677
[7]	-0.0259

CCCCCCCCCC(=O)N[C@@H](Cc1c[nH]c2ccccc12)C(=O)N[C@H](CC(N)=O)C(=O)N[C@@H](CC(=O)O)C(=O)N[C@@H]1C(=O)NCC(=O)N[C@@H](CCCN)C(=O)N[C@@H](CC(=O)O)C(=O)N[C@H](C)C(=O)N[C@@H](CC(=O)O)C(=O)NCC(=O)N[C@H](CO)C(=O)N[C@@H]([C@H](C)CC(=O)O)C(=O)N[C@@H](CC(=O)c2ccccc2N)C(=O)O[C@@H]1C [Daptomycin] + CN[C@H](CC(C)C)C(=O)N[C@H]1C(=O)N[C@@H](CC(N)=O)C(=O)N[C@H]2C(=O)N[C@H]3C(=O)N[C@H](C(=O)N[C@H](C(=O)O)c4cc(O)cc(O)c4-c4cc3ccc4O)[C@H](O)c3ccc(c(Cl)c3)Oc3cc2cc(c3O[C@@H]2O[C@H](CO)[C@@H](O)[C@H](O)[C@H]2O[C@H]2C[C@](C)(N)[C@H](O)[C@H](C)O2)Oc2ccc(cc2Cl)[C@H]1O [Vancomycin]
fitness, [1], one replicate
Details	partner 0.1875 µg/mL	partner 0.375 µg/mL	partner 0.75 µg/mL
first compound 0.125 µg/mL	0.901	≥ 1	≥ 1
first compound 0.25 µg/mL	0.853	≥ 1	≥ 1

Details	fitness
[1], first compound 0.5 µg/mL, partner 0.1875 µg/mL	≥ 1
[1], first compound 0.5 µg/mL, partner 0.375 µg/mL	≥ 1
[1], first compound 0.5 µg/mL, partner 0.75 µg/mL	≥ 1
[1], first compound 1 µg/mL, partner 0.1875 µg/mL	≥ 1
[1], first compound 1 µg/mL, partner 0.375 µg/mL	≥ 1
[1], first compound 1 µg/mL, partner 0.75 µg/mL	≥ 1
[1], first compound 2 µg/mL, partner 0.1875 µg/mL	0.906
[1], first compound 2 µg/mL, partner 0.375 µg/mL	0.975
[1], first compound 2 µg/mL, partner 0.75 µg/mL	0.935
[2], first compound 0.125 µg/mL, partner 0.1875 µg/mL	≥ 1
[2], first compound 0.125 µg/mL, partner 0.375 µg/mL	≥ 1
[2], first compound 0.125 µg/mL, partner 0.75 µg/mL	0.973
[2], first compound 0.25 µg/mL, partner 0.1875 µg/mL	≥ 1
[2], first compound 0.25 µg/mL, partner 0.375 µg/mL	0.998
[2], first compound 0.25 µg/mL, partner 0.75 µg/mL	0.985
[2], first compound 0.5 µg/mL, partner 0.1875 µg/mL	0.988
[2], first compound 0.5 µg/mL, partner 0.375 µg/mL	≥ 1
[2], first compound 0.5 µg/mL, partner 0.75 µg/mL	0.952
[3], first compound 1 µg/mL, partner 0.03125 µg/mL	0.921
[3], first compound 1 µg/mL, partner 0.0625 µg/mL	0.841
[3], first compound 1 µg/mL, partner 0.25 µg/mL	0.116
[3], first compound 1 µg/mL, partner 0.5 µg/mL	0.0905
[3], first compound 2 µg/mL, partner 0.03125 µg/mL	0.915
[3], first compound 2 µg/mL, partner 0.0625 µg/mL	0.885
[3], first compound 2 µg/mL, partner 0.125 µg/mL	0.915
[3], first compound 2 µg/mL, partner 0.25 µg/mL	0.103
[3], first compound 2 µg/mL, partner 0.5 µg/mL	0.094
[3], first compound 4 µg/mL, partner 0.03125 µg/mL	0.938
[3], first compound 4 µg/mL, partner 0.0625 µg/mL	0.898
[3], first compound 4 µg/mL, partner 0.125 µg/mL	0.904
[3], first compound 4 µg/mL, partner 0.25 µg/mL	0.184
[3], first compound 4 µg/mL, partner 0.5 µg/mL	0.0719

Details	Bliss interaction score
[4]	0.0914
[5]	0.05
[6]	0.0383
[7]	0.0724
